Data published in patent US20250197952A1, “TRANSGENIC SOYBEAN EVENT GM_CSM63717 AND COMPOSITIONS AND METHODS FOR DETECTION AND USES THEREOF” (Monsanto Technology LLC, priority 2023, published 2025).

The compounds below were run on Cas12a gRNA target sites on Glycine max A3335 chromosome 13 (assay: gRNA/LbCas12a target site editing in stably transformed soybean plants (AmpSeq)). Conditions: plants with target site edits / plants examined x 100.
Format: in vivo
Description: CRISPR Cas12a-based cleavage of DNA sequences requires the use of gRNAs that can target specific sequences (target sites) comprising a Cas12a-recognizable protospacer adjacent motif (PAM) sequence so as to facilitate Cas12a enzymatic activity and DNA cleavage. The 10 cM window was scanned for the presence of the LbCas12a-preferred PAM (TTTV, where “V” is A, C, or G) that were unique in the genome (i.e., that only occur once in the genome). This set was additionally filtered so as to identify gRNA target sites that were more than 2 kb from a coding region, more than 1 kb from a small RNA hotspot, and comprised 700 nucleotides (nt) of unique sequence on either side. A suite of genomic target sites was identified from this analysis and 12 were chosen for testing based on additional factors like GC content, and absence of potential off-targets. PAM sites are italicized and shown in bold. The corresponding 23 bp gRNA spacer (SP) sequences are also identified and represented by SEQ ID NOs:223-234.
Three Agrobacterium T-DNA vectors were designed to evaluate gRNA and LbCas12a nuclease mediated cleavage at the selected target sites. Each T-DNA vector contained 3 cassettes between the left and right borders on the T-DNA: an aadA selection marker cassette, an LbCas12a Cas12a cassette, and a multiplexed gRNA cassette. The aadA and LbCas12a cassettes were common across the three vectors. The aadA expression cassette contained the aadA gene (also known as Tn7 adenylyltransferase (AAD(3″)) from E. coli under the control of a constitutive promoter, and targeted the aadA protein to the chloroplast for selection of transgenic events resistant to spectinomycin and streptomycin. The LbCas12a cassette comprised a plant codon optimized LbCas12a (SEQ ID NO:236) flanked by the same nuclear localization signal sequence (NLS) at the 5′ and 3′ ends (SEQ ID NO:235) and a 3′UTR sequence (SEQ ID NO:237) derived from a Medicago truncatula gene. The gene cassette comprising NLS-Cas12aLbCas12a-NLS sequence was fused 3′ to an ATGGCG sequence and operably linked to a chimeric promoter sequence (SEQ ID NO:238) comprising an enhancer region from the Banana Streak Virus (Strain Acuminata Vietnam) and promoter with the 5′ UTR region from the Dahlia mosaic virus.
The guide RNA cassette in vector pG947 comprised a Glycine max Pol III promoter operably linked to a transcribable sequence comprising in order a DR sequence (SEQ ID NO:239), spacer SP10 (SEQ ID NO:232), DR (SEQ ID NO: 239), spacer SP11 (SEQ ID NO:233), DR (SEQ ID NO: 239), spacer SP2 (SEQ ID NO:224), DR (SEQ ID NO: 239), spacer SP12 (SEQ ID NO:234), DR and a poly (T)7 terminator. The guide RNA cassette in vector pG949 comprised a Glycine max Pol III promoter operably linked to a transcribable sequence comprising in order a DR sequence (SEQ ID NO:239), spacer SP9 (SEQ ID NO:231), DR (SEQ ID NO: 239), spacer SP7 (SEQ ID NO:229), DR (SEQ ID NO: 239), spacer SP1 (SEQ ID NO:223), DR (SEQ ID NO: 239), spacer SP5 (SEQ ID NO:227), DR (SEQ ID NO: 239) and a poly (T)7 terminator. The guide RNA cassette in vector pG950 comprised a Glycine max Pal III promoter operably linked to a transcribable sequence comprising in order a DR sequence (SEQ II) NO:239), spacer SP3 (SEQ ID NO:225), DR (SEQ ID NO: 239), spacer SP6 (SEQ ID NO:228), DR (SEQ ID NO: 239), spacer SP4 (SEQ ID NO:226), DR (SEQ ID NO: 239), spacer P8 (SEQ ID NO:230), DR and a poly (T)7 terminator.
The three plant transformation vectors were introduced into soybean seed-derived embryo explants through Agrobacterium-mediated transformation using methods known in the art. Transformed plants were selected on spectinomycin. Genomic DNA was extracted from leaf samples harvested from regenerated plantlets. Each targeted region was amplified by PCR. […]

Compound | Target Editing Rate (%)
GmTS1: LbCas12a gRNA for target site GmTS1 (SEQ ID NO:211), spacer SP1 (SEQ ID NO:223) (guide CAAACATCACATGGCCGGATAAG; expressed or natural sequence) | 2.4
GmTS2: LbCas12a gRNA for target site GmTS2 (SEQ ID NO:212), spacer SP2 (SEQ ID NO:224) (guide CTTCCTGAGGAAATTTGGTTTCA; expressed or natural sequence) | 7.3
GmTS3: LbCas12a gRNA for target site GmTS3 (SEQ ID NO:213), spacer SP3 (SEQ ID NO:225) (guide GCAAGATCCGCTGCCTGCTTGAG; expressed or natural sequence) | 8.3
GmTS4: LbCas12a gRNA for target site GmTS4 (SEQ ID NO:214), spacer SP4 (SEQ ID NO:226) (guide CCTTGATTTGGATTAACCCGCCA; expressed or natural sequence) | 8.3
GmTS5: LbCas12a gRNA for target site GmTS5 (SEQ ID NO:215), spacer SP5 (SEQ ID NO:227) (guide CTAAATCGCATAGCTTGTGTGTT; expressed or natural sequence) | 14.3
GmTS6: LbCas12a gRNA for target site GmTS6 (SEQ ID NO:216), spacer SP6 (SEQ ID NO:228) (guide CATGCTGTCATCATCTGTTCACT; expressed or natural sequence) | 17.9
GmTS7: LbCas12a gRNA for target site GmTS7 (SEQ ID NO:217), spacer SP7 (SEQ ID NO:229) (guide CCTATATCTGTTTCAGTGATTGC; expressed or natural sequence) | 23.8
GmTS9: LbCas12a gRNA for target site GmTS9 (SEQ ID NO:219), spacer SP9 (SEQ ID NO:231) (guide CGGAGTAGCAGAGAGGAGATTCG; expressed or natural sequence) | 36.9
GmTS10: LbCas12a gRNA for target site GmTS10 (SEQ ID NO:220), spacer SP10 (SEQ ID NO:232) (guide ATCAAAGCTAAAGCATAAGCATC; expressed or natural sequence) | 45.1
GmTS11: LbCas12a gRNA for target site GmTS11 (SEQ ID NO:221), spacer SP11 (SEQ ID NO:233) (guide GCTCGCTATATATATGTGTCACA; expressed or natural sequence) | 48.8
GmTS12: LbCas12a gRNA for target site GmTS12 (SEQ ID NO:222), spacer SP12 (SEQ ID NO:234) (guide GACATATATGCTATATCATTCTC; expressed or natural sequence) | 72

These compounds were tested on wild-type control in the same transformation germplasm (assay: Controlled environment PPO herbicide tolerance trial, wild-type control). Conditions: 1× rate, sprayed at V3 stage, greenhouse, rated 11 days after herbicide applications.
Format: in vivo, Glycine max
Description: (§1) An efficacy trial was conducted in the controlled environment to evaluate tolerance of event Gm_CSM63717 to various PPO herbicides. The experiment included the lead event (Gm_CSM63717) and a wild-type control in the same transformation germplasm, and consisted of nine individual PPO herbicide treatments, all at 1× rates. These included butafenacil, flumioxazin, fomesafen, lactofen, pyroflufen, saflufenacil, Voraxor (trifludimoxazin and salflufenacil), sulfentrazone, cyclopropylmethyl (2-{2-chloro-4-fluoro-5-[3-methyl-2,6-dioxo-4-(trifluoromethyl)-3,6-dihydropyrimidin-1(2H)-yl]phenoxy}phenoxy)acetate, and an untreated control. The herbicide formulations contained 1% (v/v) Crop Oil Concentrate (COC, Prime Oil, Winfield Solutions, LLC, P. O. Box 64589, St. Paul, MN 55164-0589) for sulfentrazone, fomesafen, lactofen, or 1% (v/v) methylated seed oil (Destiny® HC, Winfield Solutions, LLC, P. O. Box 64589, St. Paul, MN 55164-0589) for flumioxazin, saflufenacil, Voraxor, pyroflufen, butafenacil, and cyclopropylmethyl (2-{2-chloro-4-fluoro-5-[3-methyl-2,6-dioxo-4-(trifluoromethyl)-3,6-dihydropyrimidin-1(2H)-yl]phenoxy}phenoxy)acetate. There were 10 replications per treatment. The plants were grown under standard greenhouse conditions, and were sprayed with each herbicide at V3 stage, and were visually rated for herbicide injury 11 days after herbicide applications.

Compound | Injury (%) WT Control [%]
Cn1c(C(F)(F)F)cc(=O)n(-c2cc(Oc3ccccc3OCC(=O)OCC3CC3)c(Cl)cc2F)c1=O [cyclopropylmethyl (2-{2-chloro-4-fluoro-5-[3-methyl-2,6-dioxo-4-(trifluoromethyl)-3,6-dihydropyrimidin-1(2H)-yl]phenoxy}phenoxy)acetate] | 89

Each compound was assayed on soybean event Gm_CSM63717 (assay: Controlled environment PPO herbicide tolerance trial, event Gm_CSM63717). Conditions: 1× rate, sprayed at V3 stage, greenhouse, rated 11 days after herbicide applications.
Format: in vivo, Glycine max
Description: as §1

Compound | Injury (%) Gm_CSM63717 [%]
Cn1c(C(F)(F)F)cc(=O)n(-c2cc(Oc3ccccc3OCC(=O)OCC3CC3)c(Cl)cc2F)c1=O [cyclopropylmethyl (2-{2-chloro-4-fluoro-5-[3-methyl-2,6-dioxo-4-(trifluoromethyl)-3,6-dihydropyrimidin-1(2H)-yl]phenoxy}phenoxy)acetate] | 0
